Results taken from patent US20080262025A1, “Processes for the Preparation of Zolpidem and its Hemitartrate” (priority 2004, published 2008).

Key:
[1] = Moisture content by Karl Fischer titration; format: physicochemical
Experimental: • Differential scanning calorimetry plots were recorded using the following instrument and parameters: • DSC821 e, Mettler Toledo • Sample weight: 8-10 mg • Temperature range: 25-300° C. • Heating rate: 10° C./min • Nitrogen 20.0 mL/min • Number of holes in the crucible: 1 (d) TGA analysis was carried out using Perkin Elmer Instrument (e) Moisture content determination was carried out by Karl-Fischer titration technique using Mettler instrument.

[2] = Hygroscopicity: moisture absorption on exposure to atmospheric / normal storage conditions, stability studies; format: physicochemical; settings: for hygroscopicity: normal storage conditions / stability studies

| Structure (SMILES) | Moisture Content ([1]; product of Example 3, dried at 45 to 50° C. under reduced pressure) [% w/w] | hygroscopicity [2] | moisture content after absorption of water ([1]; TGA and Karl Fischer analysis, after absorption of water) | moisture content, initial ([1]; TGA and Karl Fischer analysis, initially) | moisture absorbed after exposure to atmospheric conditions ([2]; after exposure to atmospheric conditions) |
| --- | --- | --- | --- | --- | --- |
| Cc1ccc(-c2nc3ccc(C)cn3c2CC(=O)N(C)C)cc1 [Form I, zolpidem hemitartrate] | 2.33 | non-hygroscopic |  |  |  |
| Cc1ccc(-c2nc3ccc(C)cn3c2CC(=O)N(C)C)cc1 [Form A, zolpidem hemitartrate] |  | very hygroscopic | up to 5% | about 1.0 % w/w | up to 5 % w/w |
